Structures are written as SMILES.

For the first data set, the system named is Pectobacterium carotovorum SCC1. Nature of the data set: Inhibition of soft rot lesion in cucumber leaf. Particulars: 1 ppm, Table 8, control 100. Type of data set: in vivo.
Regarding `CC(O)C1NC(=O)C2CCCN2C1=O` (stereo not drawn) [Compound No. 56], the Area of lesion is given as 5%.
For `CC(C)C[C@H]1NC(=O)[C@H]2CCCN2C1=O` [Compound No. 61], the Area of lesion is 5%.
On the same count and under the same terms, to `CSCC[C@H]1NC(=O)[C@@H]2CCCN2C1=O` [Compound No. 57] belongs 70%; to `CCC(C)C1NC(=O)C2CCCN2C1=O` (stereo not drawn) [Compound No. 60], 50%; to `O=C1N[C@H](Cc2ccc(O)cc2)C(=O)N2CCC[C@H]12` [Compound No. 64], 50%.
Turning to `O=C1N[C@H](Cc2ccccc2)C(=O)N2CCC[C@@H]12` [Compound No. 58], the Area of lesion is listed as 75%.

The same data set, now with this note: 10 ppm, Table 8, control 100.
For `CC(O)C1NC(=O)C2CCCN2C1=O` (stereo not drawn) [Compound No. 56], the Area of lesion was determined as 80%.
`CC(C)C[C@H]1NC(=O)[C@H]2CCCN2C1=O` [Compound No. 61] gave an Area of lesion of 70%.
Take `CSCC[C@H]1NC(=O)[C@@H]2CCCN2C1=O` [Compound No. 57]: the Area of lesion is reported as 72.5%.
Compound `CCC(C)C1NC(=O)C2CCCN2C1=O` (stereo not drawn) [Compound No. 60] had an Area of lesion of 60%.
On the same count and under the same terms, to `O=C1N[C@H](Cc2ccc(O)cc2)C(=O)N2CCC[C@H]12` [Compound No. 64] belongs 55%.
As for `O=C1N[C@H](Cc2ccccc2)C(=O)N2CCC[C@@H]12` [Compound No. 58], the Area of lesion is 57.5%.

Still in this data set, the particulars now being: 100 ppm, Table 8, control 100.
On to `CC(O)C1NC(=O)C2CCCN2C1=O` (stereo not drawn) [Compound No. 56], for which the Area of lesion stood at 70%.
In the case of `CC(C)C[C@H]1NC(=O)[C@H]2CCCN2C1=O` [Compound No. 61], the Area of lesion was found to be 75%.
Consider `CSCC[C@H]1NC(=O)[C@@H]2CCCN2C1=O` [Compound No. 57], for which the Area of lesion was 60%.
The compound `CCC(C)C1NC(=O)C2CCCN2C1=O` (stereo not drawn) [Compound No. 60] showed an Area of lesion of 27.5%.
Still for that read-out and setting: to `O=C1N[C@H](Cc2ccc(O)cc2)C(=O)N2CCC[C@H]12` [Compound No. 64] belongs 65%; to `O=C1N[C@H](Cc2ccccc2)C(=O)N2CCC[C@@H]12` [Compound No. 58], 80%.

The test system is the same in a further data set. Nature of the data set: Inhibition of soft rot lesion in tobacco leaf. Type of data set: in vivo. The conditions noted are these: 1 ppm, Table 3, control 87.5.
In the case of `O=C1CNC(=O)C(Cc2c[nH]c3ccccc23)N1` (stereo not drawn) [Compound No. 5, 3-(indol-3-ylmethyl)-2,5-diketopiperazine], the Area of lesion came to 2.5%.

Still in this data set, the particulars now being: 1 ppm, Table 5, control 73.75.
Take `CC(O)C1NC(=O)C2CCCN2C1=O` (stereo not drawn) [Compound No. 56]: the Area of lesion is 7.5%.
Still for that read-out and setting: to `CCC(C)C1NC(=O)C2CCCN2C1=O` (stereo not drawn) [Compound No. 67] belongs 25%; to `CC(C)C[C@H]1NC(=O)[C@H]2CCCN2C1=O` [Compound No. 61], 10%; to `CSCC[C@H]1NC(=O)[C@@H]2CCCN2C1=O` [Compound No. 57], 10%.
On the same count and under the same terms, to `NC(=O)CC1NC(=O)C2CCCN2C1=O` (stereo not drawn) [Compound No. 68, 3-carbamoylmethylhexahydropyrrolo[1,2-a]pyrazin-1,4-dione] belongs 10%; to `CSCC[C@H]1NC(=O)[C@H]2CCCN2C1=O` [Compound No. 65], 60%.
Still for that read-out and setting: to `CCC(C)C1NC(=O)C2CCCN2C1=O` (stereo not drawn) [Compound No. 60] belongs 33.7%; to `O=C1N[C@H](Cc2ccc(O)cc2)C(=O)N2CCC[C@H]12` [Compound No. 64], 55%.
In turn, `O=C1N[C@H](Cc2ccccc2)C(=O)N2CCC[C@@H]12` [Compound No. 58] showed an Area of lesion of 35%.
On the same count and under the same terms, to `CC(O)C1NC(=O)C2CCCN2C1=O` (stereo not drawn) [Compound No. 66] belongs 35%.

The same data set, now with this note: 10 ppm, Table 3, control 87.5.
Consider `O=C1CNC(=O)C(Cc2c[nH]c3ccccc23)N1` (stereo not drawn) [Compound No. 5, 3-(indol-3-ylmethyl)-2,5-diketopiperazine], for which the Area of lesion was 5%.

Still in this data set, the particulars now being: 10 ppm, Table 5, control 73.75.
For the compound `CC(O)C1NC(=O)C2CCCN2C1=O` (stereo not drawn) [Compound No. 56], the Area of lesion is on record as 10%.
In turn, `CCC(C)C1NC(=O)C2CCCN2C1=O` (stereo not drawn) [Compound No. 67] yielded an Area of lesion of 35%.
On the same count and under the same terms, to `CC(C)C[C@H]1NC(=O)[C@H]2CCCN2C1=O` [Compound No. 61] belongs 10%; to `CSCC[C@H]1NC(=O)[C@@H]2CCCN2C1=O` [Compound No. 57], 10%; to `NC(=O)CC1NC(=O)C2CCCN2C1=O` (stereo not drawn) [Compound No. 68, 3-carbamoylmethylhexahydropyrrolo[1,2-a]pyrazin-1,4-dione], 7.5%.
The same measure, in the same setting: to `CSCC[C@H]1NC(=O)[C@H]2CCCN2C1=O` [Compound No. 65] belongs 57.5%.
`CCC(C)C1NC(=O)C2CCCN2C1=O` (stereo not drawn) [Compound No. 60] came in with an Area of lesion of 25%.
The same measure, in the same setting: to `O=C1N[C@H](Cc2ccc(O)cc2)C(=O)N2CCC[C@H]12` [Compound No. 64] belongs 37.5%; to `O=C1N[C@H](Cc2ccccc2)C(=O)N2CCC[C@@H]12` [Compound No. 58], 25%.
Same read-out and setting: to `CC(O)C1NC(=O)C2CCCN2C1=O` (stereo not drawn) [Compound No. 66] belongs 37.5%.

Staying with this data set, now noted: 100 ppm, Table 3, control 87.5.
In turn, `O=C1CNC(=O)C(Cc2c[nH]c3ccccc23)N1` (stereo not drawn) [Compound No. 5, 3-(indol-3-ylmethyl)-2,5-diketopiperazine] displayed an Area of lesion of 40%.

The same data set, now with this note: 100 ppm, Table 5, control 73.75.
`CC(O)C1NC(=O)C2CCCN2C1=O` (stereo not drawn) [Compound No. 56] had an Area of lesion of 10%.
In the case of `CCC(C)C1NC(=O)C2CCCN2C1=O` (stereo not drawn) [Compound No. 67], the Area of lesion is 40%.
Still for that read-out and setting: to `CC(C)C[C@H]1NC(=O)[C@H]2CCCN2C1=O` [Compound No. 61] belongs 17.5%; to `CSCC[C@H]1NC(=O)[C@@H]2CCCN2C1=O` [Compound No. 57], 12.5%; to `NC(=O)CC1NC(=O)C2CCCN2C1=O` (stereo not drawn) [Compound No. 68, 3-carbamoylmethylhexahydropyrrolo[1,2-a]pyrazin-1,4-dione], 30%.
The same measure, in the same setting: to `CSCC[C@H]1NC(=O)[C@H]2CCCN2C1=O` [Compound No. 65] belongs 52.5%.
Same read-out and setting: to `CCC(C)C1NC(=O)C2CCCN2C1=O` (stereo not drawn) [Compound No. 60] belongs 7.5%; to `O=C1N[C@H](Cc2ccc(O)cc2)C(=O)N2CCC[C@H]12` [Compound No. 64], 60%.
For `O=C1N[C@H](Cc2ccccc2)C(=O)N2CCC[C@@H]12` [Compound No. 58], the Area of lesion came to 7.5%.
Same read-out and setting: to `CC(O)C1NC(=O)C2CCCN2C1=O` (stereo not drawn) [Compound No. 66] belongs 37.5%.

Test system in a further data set: not given
Test: not given
Conditions: not given
On to `O=C1CNC(=O)C(Cc2c[nH]c3ccccc23)N1` (stereo not drawn) [Compound No. 5, 3-(indol-3-ylmethyl)-2,5-diketopiperazine], for which the melting point is 280 to 284 °C (dec.).
Turning to `CC1NC(=O)C(Cc2ccc(O)cc2)NC1=O` (stereo not drawn) [Compound No. 10, 3-methyl-6-(4-hydroxybenzyl)-2,5-diketopiperazine], the melting point was 276 to 280 °C (dec.).
Regarding `CCCC1NC(=O)C(C)NC1=O` (stereo not drawn) [Compound No. 9, 3-methyl-6-(2-methylethyl)-2,5-diketopiperazine], the melting point is 220 to 222 °C (dec.).

For the origin of these results see patent publication US20170204102A1, “AGRICULTURAL AGENT CONTAINING 2,5-DIKETOPIPERAZINE DERIVATIVE AS ACTIVE INGREDIENT” (NAPRO BIOTEC INC., priority 2010, published 2017).
